Molecular target: human plasma kallikrein (Homo sapiens (Human), UniProt P03952)
Assay: Plasma Kallikrein Activity Assay (chromogenic substrate S2302)
Assay type: biochemical
Conditions: 2 nM kallikrein, 80 μM S2302, 30° C., pH 7.8; Cheng-Prusoff
Summary of the method: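 2 nM human plasma kallikrein incubated at 30° C with 80 μM S2302 and increasing compound concentrations in 50 mM Tris-HCl pH 7.8, 200 mM NaCl, 2.5 mM CaCl2. Activity read as absorbance change at 405 nm; four-parameter logistic fit, Ki by Cheng-Prusoff.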

Chain of human plasma kallikrein (P03952 391-638): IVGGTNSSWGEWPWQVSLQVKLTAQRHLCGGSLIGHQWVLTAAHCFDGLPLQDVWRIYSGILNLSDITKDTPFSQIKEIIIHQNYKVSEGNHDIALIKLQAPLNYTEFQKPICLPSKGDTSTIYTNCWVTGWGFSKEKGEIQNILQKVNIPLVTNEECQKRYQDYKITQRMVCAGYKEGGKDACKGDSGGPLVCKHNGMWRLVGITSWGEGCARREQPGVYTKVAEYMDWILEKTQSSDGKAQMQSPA
Chain of human plasma kallikrein (P03952 20-390 partner): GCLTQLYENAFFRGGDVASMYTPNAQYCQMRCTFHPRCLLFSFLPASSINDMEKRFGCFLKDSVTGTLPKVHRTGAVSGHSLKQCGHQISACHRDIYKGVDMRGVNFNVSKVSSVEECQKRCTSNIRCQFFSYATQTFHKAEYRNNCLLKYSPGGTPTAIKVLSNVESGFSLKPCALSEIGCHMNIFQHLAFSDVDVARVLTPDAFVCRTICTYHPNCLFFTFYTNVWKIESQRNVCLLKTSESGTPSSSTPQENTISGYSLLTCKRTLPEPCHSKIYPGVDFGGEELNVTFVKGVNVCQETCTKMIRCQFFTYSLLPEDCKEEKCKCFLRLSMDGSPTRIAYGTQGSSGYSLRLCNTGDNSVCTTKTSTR

| Structure (SMILES) | Ki |
| --- | --- |
| CO[C@@H]1C[C@H](C(=O)Nc2cc(C(N)(CCC3CC3)c3ccncc3)ccc2F)N(C(=O)c2ccc(Cl)c(N)c2)C1 (stereo partly drawn) [Compound 84a, (2R,4R)-N-(5-((+)-1-amino-3-cyclopropyl-1-(pyridin-4-yl)propyl)-2-fluorophenyl)-1-(3-amino-4-chlorobenzoyl)-4-methoxypyrrolidine-2-carboxamide] | > 100 nM |
| CO[C@@H]1C[C@H](C(=O)Nc2cc(C(CCC3CC3)n3ccccc3=O)ccc2F)N(C(=O)Nc2ccc(Cl)cn2)C1 (stereo partly drawn) [Compound 42l, (2R,4R)-N1-(5-chloropyridin-2-yl)-N2-(5-(3-cyclopropyl-1-(2-oxopyridin-1(2H)-yl)propyl)-2-fluorophenyl)-4-methoxypyrrolidine-1,2-dicarboxamide] | < 50 nM |
| CO[C@@H]1C[C@H](C(=O)Nc2cc(C(N)(CCC3CC3)c3cccc(C#N)c3)ccc2F)N(C(=O)N(C)c2ccc(Cl)cc2)C1 (stereo partly drawn) [Compound 6e, (2R,4R)-N2-(5-((−)-1-amino-1-(3-cyanophenyl)-3-cyclopropylpropyl)-2-fluorophenyl)-N1-(4-chlorophenyl)-4-methoxy-N1-methylpyrrolidine-1,2-dicarboxamide] | > 100 nM |
| CC(C)(C)[S@@+]([O-])NC(CCC1CC1)(c1cccc(C#N)c1)c1ccc(F)c(NC(=O)[C@H]2C[C@H](N=[N+]=[N-])CN2C(=O)Nc2ccc(Cl)cc2)c1 (stereo partly drawn) [Compound 33b, (2R,4S)-4-azido-N1-(4-chlorophenyl)-N2-(5-((+)-1-(3-cyanophenyl)-3-cyclopropyl-1-((R)-1,1-dimethylethylsulfinamido)propyl)-2-fluorophenyl)pyrrolidine-1,2-dicarboxamide] | > 100 nM |
| NC(CCC1CC1)(c1ccncc1)c1ccc(F)c(NC(=O)[C@H]2C[C@@H](O)CN2C(=O)Nc2ccc(Cl)cn2)c1 (stereo partly drawn) [Compound 72c, (2R,4R)-N2-(5-((+)-1-amino-3-cyclopropyl-1-(pyridin-4-yl)propyl)-2-fluorophenyl)-N1-(5-chloropyridin-2-yl)-4-hydroxypyrrolidine-1,2-dicarboxamide] | < 50 nM |
| CO[C@@H]1C[C@H](C(=O)Nc2cc(C(CCC3CC3)(N[S@+]([O-])C(C)(C)C)c3cccc(C#N)c3)ccc2F)N(C(=O)N(C)c2ccc(Cl)cc2)C1 (stereo partly drawn) [Compound 6c, (2R,4R)-N1-(4-chlorophenyl)-N2-(5-((−)-1-(3-cyanophenyl)-3-cyclopropyl-1-((R)-1,1-dimethylethylsulfinamido)propyl)-2-fluorophenyl)-4-methoxy-N1-methylpyrrolidine-1,2-dicarboxamide] | > 100 nM |
| N#Cc1cccc(C(N)(CCC2CC2)c2ccc(F)c(NC(=O)[C@H]3C[C@@H](O)CN3C(=O)Nc3cccc4ccccc34)c2)c1 (stereo partly drawn) [Compound 26b, (2R,4R)-N2-(5-((+)-1-amino-1-(3-cyanophenyl)-3-cyclopropylpropyl)-2-fluorophenyl)-4-hydroxy-N1-(naphthalen-1-yl)pyrrolidine-1,2-dicarboxamide] | > 100 nM |
| N#Cc1cccc(C(N)(CCC2CC2)c2ccc(F)c(NC(=O)[C@H]3CC(=O)CN3C(=O)Nc3ccc(Cl)cc3)c2)c1 (stereo partly drawn) [Compound 20b, (R)-N2-(5-(1-amino-1-(3-cyanophenyl)-3-cyclopropylpropyl)-2-fluorophenyl)-N1-(4-chlorophenyl)-4-oxopyrrolidine-1,2-dicarboxamide] | > 100 nM |
| CO[C@]1(C(F)(F)F)C[C@H](C(=O)Nc2cc(C(N)(CCC3CC3)c3ccncc3)ccc2F)N(C(=O)Nc2ccc(Cl)cn2)C1 (stereo partly drawn) [Compound 57d, (2R,4R)-N2-(5-((+)-1-amino-3-cyclopropyl-1-(pyridin-4-yl)propyl)-2-fluorophenyl)-N1-(5-chloropyridin-2-yl)-4-methoxy-4-(trifluoromethyl)pyrrolidine-1,2-dicarboxamide] | < 50 nM |
| CO[C@]1(c2ccccc2)C[C@H](C(=O)Nc2cc(C(N)(CCC3CC3)c3ccccn3)ccc2F)N(C(=O)Nc2ccc(Cl)cn2)C1 (stereo partly drawn) [Compound 35a, (2R,4S)-N2-(5-((+)-1-amino-3-cyclopropyl-1-(pyridin-2-yl)propyl)-2-fluorophenyl)-N1-(5-chloropyridin-2-yl)-4-methoxy-4-phenylpyrrolidine-1,2-dicarboxamide] | 50 to 100 nM |
| CC(=O)O[C@@H]1C[C@H](C(=O)Nc2cc(C(N)(CCC3CC3)c3cccc(C#N)c3)ccc2F)N(C(=O)Nc2ccc(Cl)cn2)C1 (stereo partly drawn) [Compound 14g, (3R,5R)-5-(5-((+)-1-amino-1-(3-cyanophenyl)-3-cyclopropylpropyl)-2-fluorophenylcarbamoyl)-1-(5-chloropyridin-2-ylcarbamoyl)pyrrolidin-3-yl acetate] | > 100 nM |
| CO[C@@H]1C[C@H](C(=O)Nc2cc(C(N)(CCC3CC3)c3cccc(C#N)c3)ccc2F)N(C(=O)Nc2ccc(Cl)cc2)C1 (stereo partly drawn) [Compound 17b, (2R,4R)-N2-(5-((+)-1-amino-1-(3-cyanophenyl)-3-cyclopropylpropyl)-2-fluorophenyl)-4-methoxy-N1-(4-chlorophenyl)pyrrolidine-1,2-dicarboxamide] | 50 to 100 nM |
| CNC(CCC1CC1)(c1ccncc1)c1ccc(F)c(NC(=O)[C@H]2C[C@](O)(c3ccccc3)CN2C(=O)Nc2ccc(Cl)cn2)c1 (stereo partly drawn) [Compound 41a, (2R,4S)-N1-(5-chloropyridin-2-yl)-N2-(5-((+)-3-cyclopropyl-1-(methylamino)-1-(pyridin-4-yl)propyl)-2-fluorophenyl)-4-hydroxy-4-phenylpyrrolidine-1,2-dicarboxamide] | < 50 nM |
| CO[C@]1(c2ccccc2)C[C@H](C(=O)Nc2cc(C(N)(CCC3CC3)c3ccccn3)ccc2F)N(C(=O)Nc2ccc(Cl)cc2)C1 (stereo partly drawn) [Compound 34d, (2R,4S)-N2-(5-((+)-1-amino-3-cyclopropyl-1-(pyridin-2-yl)propyl)-2-fluorophenyl)-N1-(4-chlorophenyl)-4-methoxy-4-phenylpyrrolidine-1,2-dicarboxamide] | < 50 nM |
| C[C@@H]1C[C@H](C(=O)Nc2cc(C(N)(CCC3CC3)c3ccncc3)ccc2F)N(C(=O)Nc2ccc(Cl)cn2)C1 (stereo partly drawn) [Compound 49d, (2R,4R)-N2-(5-((+)-1-amino-3-cyclopropyl-1-(pyridin-4-yl)propyl)-2-fluorophenyl)-N1-(5-chloropyridin-2-yl)-4-methylpyrrolidine-1,2-dicarboxamide] | 50 to 100 nM |
| O=C(Nc1ccc(Cl)cn1)NC(CCC1CC1)(c1ccc(F)c(NC(=O)[C@H]2C[C@](O)(c3ccccc3)CN2C(=O)Nc2ccc(Cl)cn2)c1)c1ccccn1 (stereo partly drawn) [Compound 32b, (2R,4S)-N1-(5-chloropyridin-2-yl)-N2-(5-(1-(3-(5-chloropyridin-2-yl)ureido)-3-cyclopropyl-1-(pyridin-2-yl)propyl)-2-fluorophenyl)-4-hydroxy-4-phenylpyrrolidine-1,2-dicarboxamide] | > 100 nM |
| CCNC(CCC1CC1)(c1ccnc(C)c1)c1ccc(F)c(NC(=O)[C@H]2C[C@@H](OC)CN2C(=O)Nc2ccc(Cl)cn2)c1 (stereo partly drawn) [Compound 78a, (2R,4R)-N1-(5-chloropyridin-2-yl)-N2-(5-((+)-3-cyclopropyl-1-(ethylamino)-1-(2-methylpyridin-4-yl)propyl)-2-fluorophenyl)-4-methoxypyrrolidine-1,2-dicarboxamide] | < 50 nM |
| NC(CCC1CC1)(c1ccncc1)c1ccc(F)c(NC(=O)[C@H]2C[C@H](c3ccccc3)CN2C(=O)Nc2ccc(Cl)cn2)c1 (stereo partly drawn) [Compound 47d, (2R,4R)-N2-(5-((+)-1-amino-3-cyclopropyl-1-(pyridin-4-yl)propyl)-2-fluorophenyl)-N1-(5-chloropyridin-2-yl)-4-phenylpyrrolidine-1,2-dicarboxamide] | 50 to 100 nM |
